The source of these data is the SangsterLogP compilation.

Residues, ends and D or L forms follow the SMILES beside them. *: point of attachment. NHtBu = CC(C)(C)N*

The first data set in a line: method code SF, from DOI: 10.1021/jm5019252, PMID: 25906180. The following applies: pH 7.4.
With `CN(C(=O)Oc1ccc(O)c(C(=O)NCc2ccccc2)c1)c1ccccc1`, the logD is 4.19.

As to `COC(=O)c1cc(OC(=O)N(C)c2ccccc2)ccc1O`, the logD worked out at 3.13.

For `COC(=O)c1cc(OC(=O)N(c2ccccc2)c2ccccc2)ccc1O`, the logD was 4.46.

In turn, `CN(C(=O)Oc1ccc(O)c(C(=O)NCc2cccnc2)c1)c1ccccc1` had a log distribution coefficient (logD) of 2.95.

Another data set in a line: method code SF-AS, from DOI: 10.1016/j.ejmech.2015.02.036, PMID: 25728022. The conditions noted are these: pH 7.4.
`C=CCn1c(C)nc2cc(Nc3nc(N4CCCC4)nc4[nH]cnc34)ccc21` registered a logD of 2.53.

In turn, `CCCCn1c(C)nc2cc(Nc3nc(Cl)nc4[nH]cnc34)ccc21` came in with a logD of 1.28.

`C=CCn1c(C)nc2cc(Nc3nc(N4CCCCC4)nc4[nH]cnc34)ccc21` displayed a logD of 1.55.

Consider `CCCCn1c(C)nc2cc(Nc3nc(N4CCCC4)nc4[nH]cnc34)ccc21`, for which the logD is 1.36.

A further data set can be described thus: method code SF, from DOI: 10.1097/00004424-199009001-00048. The conditions noted are these: pH 7.4.
Consider `O=C(NCCO)c1c(I)c(C(=O)NCCO)c(I)c(N(CC(O)CO)C(=O)C(O)CO)c1I` (stereo not given), for which the logD is -2.64.

With `O=C(NCC(O)CO)c1c(I)c(N(CCO)C(=O)CO)c(I)c(N(CCO)C(=O)CO)c1I` (stereo not given), the logD is -2.55.

Take `COCC(=O)Nc1c(I)c(C(=O)NCC(O)CO)c(I)c(C(=O)N(C)CC(O)CO)c1I` (stereo not given): the logD was -2.05.

On to `C[C@H](O)C(=O)Nc1c(I)c(C(=O)NC(CO)CO)c(I)c(C(=O)NC(CO)CO)c1I`, for which the logD is -2.42.

A short description of another data set: method code SF-RC, from DOI: 10.1023/a:1015846100305, PMID: 1788157. The conditions noted are these: pH 7.3.
Regarding `CC(=O)N[C@@H](C)C(=O)N[C@@H](Cc1ccccc1)C(=O)N[C@@H](C)C(=O)NC(C)(C)C` (Ac-Ala-Phe-Ala-NHtBu), the logD turned out to be 1.01.

For the compound `CC(=O)N[C@@H](C)C(=O)N[C@@H](C)C(=O)N[C@@H](C)C(=O)NC(C)(C)C`, the logD was -0.51.

For the compound `CC(=O)NC(C)C(=O)NC(Cc1c[nH]cn1)C(=O)NC(C)C(=O)NC(C)(C)C` (stereo not drawn) (Ac-Ala-His-Ala-NHtBu; configuration not given here), the logD is -0.48.

Consider `CC(=O)NC(C)C(=O)N1CCCC1C(=O)NC(C)C(=O)NC(C)(C)C` (stereo not drawn) (Ac-Ala-Pro-Ala-NHtBu; configuration not given here), for which the logD is -0.39.

Assay in the next data set: not given
Conditions: not given
The compound `COC(=O)C1=C(C)NC(C)=C(C(=O)OC/C=C/c2ccccc2)C1c1cccc([N+](=O)[O-])c1` (stereo not given) gave a logP of 4.26.

`CC1=C(C(=O)OC(C)C)C(c2cccc([N+](=O)[O-])c2)C(C(=O)OC2CN(C(c3ccccc3)c3ccccc3)C2)=C(N)N1` (stereo not given): the log partition coefficient (logP) was 5.18.

Regarding `CCOC(=O)C1=C(C)NC(C)=C(C(=O)OC)C1c1cccc(Cl)c1Cl` (stereo not given), the logP worked out at 3.65.

A short description of a further data set: method code SF-RC, from DOI: 10.1016/s0969-8043(00)00269-4, PMID: 11200881. The conditions noted are these: pH 7.4.
As for `COc1ccc(C2CNC(=O)C2)cc1OC1CCCC1` (stereo not given), the logD is 2.17.

`CN1CCc2c(cc(O)c(O)c2Cl)C(c2ccccc2)C1` (stereo not given) returned a logD of 1.4.

`CN1CCc2cc(Cl)c(O)cc2[C@@H](c2ccccc2)C1` displayed a logD of 2.87.

The compound `CCOC(=O)c1ncn2c1CN(C)C(=O)c1cc(F)ccc1-2` came in with a logD of 1.26.

Assay in the next data set: not given
Conditions: not given
This is another data set of the same source.
Compound `CCc1onc(C)c1N=C1C=C(Nc2c(C)noc2CC)C(=O)c2ccccc21` had a logP of 2.71.

Consider `CCCc1onc(C)c1N=C1C=C(O)C(=O)c2ccccc21`, for which the logP worked out at 2.52.

In turn, `CCC1ON=C(C)C1N=C1C=C(OC)C(=O)c2ccccc21` (stereo not given) showed a logP of 2.43. This logP and that of the compound before are within 0.2 log units of each other.

Regarding `CCc1onc(C)c1N=C1C=C(O)C(=O)c2ccccc21`, the logP is 2.

A short description of a further data set: method code SF-AS, from DOI: 10.1039/p29900001191. The conditions noted are these: pH 12.0.
For the compound `Cc1cc(-c2ccccc2)nnc1NCCN1CCOCC1`, the logD amounted to 2.03.

Take `CCc1cc(-c2ccccc2)nnc1NCCN1CCOCC1`: the logD was found to be 2.53.

`NC(=O)c1cc(-c2ccccc2)nnc1NCCN1CCOCC1` yielded a logD of 1.86.

The compound `c1ccc(-c2cc(-c3ccccc3)c(NCCN3CCOCC3)nn2)cc1` yielded a logD of 3.38.

Another data set is described as follows: method code SF-AS, from DOI: 10.1021/jm00085a014, PMID: 1560439. The following applies: pH 7.4.
Compound `CCc1[nH]c(=O)[nH]c1C(=O)c1ccc(-n2ccnc2C)cc1` yielded a logD of 0.85.

The compound `CCC(=O)n1c(C(=O)c2ccc(-n3ccnc3C)cc2)c(CC)[nH]c1=O` registered a logD of 1.72.

Regarding `CCc1[nH]c(=O)n(C(=O)c2ccccc2)c1C(=O)c1ccc(-n2ccnc2C)cc1`, the logD was 1.96.

`CCc1[nH]c(=O)n(C(C)=O)c1C(=O)c1ccc(-n2ccnc2C)cc1`: the logD was 1.42.

What is called logD is the decadic logarithm of the distribution of all forms, ionised or not, between an organic phase and buffer at a given pH. High values mean higher lipophilicity, low ones lower lipophilicity. As usually defined, the logP is the decadic logarithm of the partition coefficient of the neutral form, usually between octanol and water. A higher logP goes with higher lipophilicity.
